PMC7663103, “Homo-Tris-Nitrones Derived from α-Phenyl-N-tert-butylnitrone: Synthesis, Neuroprotection and Antioxidant Properties” (International Journal of Molecular Sciences, 2020)

Molecular target: T1, soybean lipoxygenase (Glycine max, UniProt P08170)
T1 construct: gene LOX1.1
T1 sequence (P08170 1-839): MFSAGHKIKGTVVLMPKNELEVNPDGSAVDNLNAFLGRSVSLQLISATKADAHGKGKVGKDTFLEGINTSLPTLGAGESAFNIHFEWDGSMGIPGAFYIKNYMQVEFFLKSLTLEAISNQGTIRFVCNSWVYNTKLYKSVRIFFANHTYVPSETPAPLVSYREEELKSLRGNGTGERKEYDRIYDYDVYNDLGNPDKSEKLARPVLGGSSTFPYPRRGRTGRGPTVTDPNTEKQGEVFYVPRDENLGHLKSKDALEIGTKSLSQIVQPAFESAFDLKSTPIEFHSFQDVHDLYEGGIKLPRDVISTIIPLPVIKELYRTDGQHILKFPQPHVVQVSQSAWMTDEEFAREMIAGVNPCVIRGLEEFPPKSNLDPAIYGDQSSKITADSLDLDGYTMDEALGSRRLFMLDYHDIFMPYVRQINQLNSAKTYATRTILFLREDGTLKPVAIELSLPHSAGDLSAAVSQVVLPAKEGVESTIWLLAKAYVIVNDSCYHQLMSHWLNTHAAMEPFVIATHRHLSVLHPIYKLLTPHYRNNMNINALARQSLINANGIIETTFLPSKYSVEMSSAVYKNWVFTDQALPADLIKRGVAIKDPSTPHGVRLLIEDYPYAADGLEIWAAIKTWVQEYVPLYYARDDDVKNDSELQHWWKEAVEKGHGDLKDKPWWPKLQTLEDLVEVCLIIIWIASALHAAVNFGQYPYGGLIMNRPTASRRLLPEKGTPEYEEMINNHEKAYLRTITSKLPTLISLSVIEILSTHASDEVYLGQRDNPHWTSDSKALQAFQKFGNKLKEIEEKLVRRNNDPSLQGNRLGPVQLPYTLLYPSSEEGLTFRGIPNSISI
Assay: UV assay of sodium linoleate conversion to 13-hydroperoxylinoleic acid at […] nm
Assay type: biochemical
Settings: read-out: LOX Inhibition (% or IC50 [μM]) (±SEM)

IC50 [µM] | SMILES
100 ± 1.1 | C/[N+]([O-])=C/c1cc(/C=[N+](/C)[O-])cc(/C=[N+](/C)[O-])c1 [HTN1, (1. Z,1′Z,1″Z)-1,1′,1″-(Benzene-1,3,5-triyl)tris(N-methylmethanimineoxide)]
70 ± 2.6 | [O-]/[N+](=C\c1cc(/C=[N+](\[O-])Cc2ccccc2)cc(/C=[N+](\[O-])Cc2ccccc2)c1)Cc1ccccc1 [HTN3, (1. Z,1′Z,1″Z)-1,1′,1″-(Benzene-1,3,5-triyl)tris(N-benzylmethanimineoxide)]
